From the supplement of paper PMC10307832

Experiments:
Assay in all cases: relative viability (nuclei count vs DMSO), 5 days (fraction); higher = more cells survive
Vandetanib + Pictilisib = compound: COc1cc2/c(=N/c3ccc(Br)cc3F)nc[nH]c2cc1OCC1CCN(C)CC1 [Vandetanib] + CS(=O)(=O)N1CCN(Cc2cc3nc(-c4cccc5[nH]ncc45)nc(N4CCOCC4)c3s2)CC1 [Pictilisib] (partner 1 µM)
Procedure, shortened: (§1)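 For relative viability, nuclei counts in treated wells were divided by those in vehicle wells. Lung cancer cell lines had been pin-tool dosed in 1536-well plates the day after seeding and cultured for 5 days, then fixed and stained in one step (final 0.05% Triton X-100, 1% formaldehyde, 1 ug/ml Hoechst) and imaged at 4×. Doses were one drug alone or a fixed anchor-drug dose plus five library-drug doses (not always all listed) in √10 steps, and values are duplicate-plate medians.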

Vandetanib + Alpelisib = compound: COc1cc2/c(=N/c3ccc(Br)cc3F)nc[nH]c2cc1OCC1CCN(C)CC1 [Vandetanib] + Cc1nc(NC(=O)N2CCC[C@H]2C(N)=O)sc1-c1ccnc(C(C)(C)C(F)(F)F)c1 [Alpelisib] (partner 2 µM)
Procedure, shortened: as §1

NVP-TAE684 + Tozasertib = compound: COc1cc(N2CCC(N3CCN(C)CC3)CC2)ccc1Nc1ncc(Cl)c(Nc2ccccc2S(=O)(=O)C(C)C)n1 [NVP-TAE684] + Cc1cc(Nc2cc(N3CCN(C)CC3)nc(Sc3ccc(NC(=O)C4CC4)cc3)n2)n[nH]1 [Tozasertib] (partner 0.1 µM)
Procedure, shortened: as §1

Vandetanib + Decitabine = compound: COc1cc2/c(=N/c3ccc(Br)cc3F)nc[nH]c2cc1OCC1CCN(C)CC1 [Vandetanib] + Nc1ncn([C@H]2C[C@H](O)[C@@H](CO)O2)c(=O)n1 [Decitabine] (partner 2 µM)
Procedure, shortened: as §1

Cell Line | relative viability (Vandetanib + Pictilisib; first compound 0.02 µM) | relative viability (Vandetanib + Pictilisib; first compound 0.06325 µM) | relative viability (Vandetanib + Pictilisib; first compound 0.2 µM) | relative viability (Vandetanib + Pictilisib; first compound 0.6325 µM) | relative viability (Vandetanib + Pictilisib; first compound 2 µM) | relative viability (Vandetanib + Alpelisib; first compound 0.02 µM) | relative viability (Vandetanib + Alpelisib; first compound 0.06325 µM) | relative viability (Vandetanib + Alpelisib; first compound 0.2 µM) | relative viability (Vandetanib + Alpelisib; first compound 0.6325 µM) | relative viability (Vandetanib + Alpelisib; first compound 2 µM) | relative viability (NVP-TAE684 + Tozasertib; first compound 0.2 µM) | relative viability (NVP-TAE684 + Tozasertib; first compound 0.6325 µM) | relative viability (NVP-TAE684 + Tozasertib; first compound 2 µM) | relative viability (Vandetanib + Decitabine; first compound 0.02 µM) | relative viability (Vandetanib + Decitabine; first compound 0.06325 µM) | relative viability (Vandetanib + Decitabine; first compound 0.2 µM) | relative viability (Vandetanib + Decitabine; first compound 0.6325 µM) | relative viability (Vandetanib + Decitabine; first compound 2 µM)
NCI-H1299 | 0.788 | 0.677 | 0.906 | 0.674 | 0.604 | 0.956 | 0.997 | 1.07 | 1.09 | 1.04 | – | – | – | – | – | – | – | –
NCI-H2009 | 0.78 | 0.669 | 0.79 | 0.828 | 0.81 | 1.16 | 1.07 | 1.2 | 1.15 | 1.15 | 0.77 | 0.704 | 0.376 | 0.359 | 0.394 | 0.369 | 0.371 | 0.325
NCI-H1395 | 0.687 | 0.61 | 0.656 | 0.697 | 0.418 | 1.03 | 1.28 | 1.22 | 1.04 | 0.998 | 0.819 | 0.699 | 0.626 | 0.737 | 0.704 | 0.655 | 0.788 | 0.74
NCI-H1650 | 0.561 | 0.511 | – | 0.555 | 0.515 | – | – | – | – | – | 0.317 | 0.385 | 0.165 | 0.361 | 0.451 | 0.413 | 0.502 | 0.403
NCI-H2085 | 0.428 | 0.421 | 0.398 | 0.363 | 0.513 | 0.98 | 0.901 | 0.873 | 0.869 | 0.936 | 0.803 | 0.781 | 0.379 | 0.536 | 0.522 | 0.525 | 0.471 | 0.574
NCI-H1666 | 0.343 | 0.446 | 0.498 | 0.451 | 0.322 | 0.89 | 0.764 | 0.793 | 0.668 | 0.401 | 0.569 | 0.63 | 0.488 | 0.74 | 0.675 | 0.731 | 0.757 | 0.553
NCI-H1993 | 0.832 | 0.727 | 0.64 | 0.85 | 0.723 | 0.668 | 0.706 | 0.648 | 0.582 | 0.703 | 0.626 | 0.543 | 0.476 | 0.674 | 0.645 | 0.628 | 0.637 | 0.541
NCI-H1437 | 0.463 | 0.419 | 0.432 | 0.357 | 0.481 | 0.922 | 0.965 | 0.94 | 1 | 0.902 | 0.433 | 0.396 | 0.311 | 0.534 | 0.559 | 0.556 | 0.551 | 0.545
ABC-1 | 0.794 | 0.673 | 0.866 | 0.664 | 0.765 | 1.01 | 0.787 | 0.95 | 1.12 | 0.827 | 0.17 | 0.147 | 0.127 | 1.14 | 1.04 | 1.13 | 1.4 | 0.833
NCI-H727 | 0.33 | 0.272 | 0.341 | 0.325 | 0.309 | 0.619 | 0.56 | 0.405 | 0.496 | 0.322 | 0.495 | 0.532 | 0.32 | 0.827 | 0.798 | 0.938 | 0.885 | 0.492
PC-3 [JPC-3] | 0.725 | 0.709 | 0.622 | 0.423 | 0.359 | 1.03 | 1 | 0.982 | 0.736 | 0.507 | 0.926 | 0.86 | 0.584 | 0.876 | 0.847 | 0.72 | 0.661 | 0.488
NCI-H1792 | 0.273 | 0.288 | 0.303 | 0.318 | 0.235 | 0.676 | 0.672 | 0.694 | 0.705 | 0.565 | – | – | – | 0.487 | 0.469 | 0.698 | 0.53 | 0.444
IA-LM | 0.349 | – | 0.345 | 0.405 | 0.331 | 0.588 | 0.783 | 0.791 | 0.961 | 0.811 | – | – | – | – | – | – | – | –
NCI-H2342 | – | – | – | – | – | – | – | – | – | – | 0.572 | 0.485 | 0.297 | 0.727 | 0.75 | 0.8 | 0.699 | 0.723
NCI-H522 | – | – | – | – | – | – | – | – | – | – | 0.53 | 0.692 | 0.509 | 0.619 | 0.691 | 0.717 | 0.768 | 0.646
Calu-6 | 0.938 | 0.9 | 0.881 | 0.807 | 0.907 | 0.99 | 1.01 | 0.881 | 0.895 | 0.843 | – | – | – | – | – | – | – | –
NCI-H2228 | 0.383 | 0.402 | – | 0.399 | 0.297 | 0.75 | 0.587 | – | 0.712 | 0.624 | 0.196 | 0.129 | 0.136 | – | – | – | – | –
NCI-H1703 | 0.244 | 0.217 | 0.212 | 0.211 | 0.231 | 0.306 | – | 0.347 | 0.284 | 0.222 | – | – | – | – | – | – | – | –
CAL-12T | 0.436 | 0.412 | 0.398 | 0.398 | 0.311 | 0.993 | 0.956 | 1.44 | 1.26 | 0.73 | 0.278 | 0.315 | 0.117 | – | – | – | – | –
NCI-H1623 | – | – | – | – | – | – | – | – | – | – | 0.442 | 0.427 | 0.393 | – | – | – | – | –
ChaGo-K-1 | 0.632 | 0.713 | 0.619 | 0.87 | 0.28 | – | – | – | – | – | 0.214 | 0.206 | 0.16 | 0.518 | 0.519 | 0.287 | 0.496 | 0.523
NCI-H1563 | 0.62 | 0.707 | 0.623 | 0.656 | 0.657 | 0.852 | 0.958 | 0.88 | 0.904 | 0.916 | – | – | – | – | – | – | – | –
EBC-1 | 0.465 | 0.345 | 0.404 | 0.359 | 0.242 | 0.81 | 0.784 | 0.862 | 0.809 | 0.746 | – | – | – | – | – | – | – | –
NCI-H1648 | – | – | – | – | – | – | – | – | – | – | 0.413 | 0.458 | 0.262 | 0.55 | 0.52 | 0.479 | 0.49 | 0.418
